One block for each compound: values may come before it.
Legend:
[1] = Permeability of compound across basolateral to apical side in dog wild type MDCK cells; assay type: ADME, cell-based, Canis lupus familiaris; details: read-out: permeability
[2] = Permeability of compound across apical to basolateral side in dog wild type MDCK cells; assay type: ADME, cell-based, Canis lupus familiaris; details: read-out: permeability
[3] = Permeability of compound across basolateral to apical side in dog wild type MDCK-MDR1 cells; assay type: ADME, cell-based, Canis lupus familiaris; details: read-out: permeability
[4] = Permeability of compound across apical to basolateral side in dog wild type MDCK-MDR1 cells; assay type: ADME, cell-based, Canis lupus familiaris; details: read-out: permeability
[5] = Dissociation constant, pKa of the compound; assay type: physicochemical
[6] = Metabolic stability in human microsome assessed as intrinsic clearance incubated for 45 mins in presence of NADPH regenerating system by LC-MS/MS analysis; assay type: ADME; details: microsomes
[7] = Clearance in Sprague-Dawley rat 0.3 mg/kg, iv measured at 0.083 to 24 hrs by LC-MS/MS analysis; assay type: ADME, organism-based; details: in vivo, time 0.083-24 hrs
[8] = Volume of distribution at steady state in Sprague-Dawley rat 3 mg/kg, po or 3 mg/kg, iv measured at 0.083 to 24 hrs by LC-MS/MS analysis; assay type: ADME, organism-based; details: in vivo, time 0.083-24 hrs
[9] = Oral bioavailability in Sprague-Dawley rat 0.3 mg/kg measured at 0.083 to 24 hrs by LC-MS/MS analysis; assay type: ADME, organism-based; details: in vivo, time 0.083-24 hrs
[10] = Metabolic stability in rat microsome assessed as intrinsic clearance incubated for 45 mins in presence of NADPH regenerating system by LC-MS/MS analysis; assay type: ADME; details: microsomes
[11] = Half life in Sprague-Dawley rat 0.3 mg/kg, iv measured at 0.083 to 24 hrs by LC-MS/MS analysis; assay type: ADME, organism-based; details: in vivo, time 0.083-24 hrs
[12] = Volume of distribution at steady state in Cynomolgus monkey measured at 0.083 to 24 hrs by LC-MS/MS analysis; assay type: ADME, Macaca fascicularis; details: in vivo, time 0.083-24 hrs, read-out: Vdss
[13] = Metabolic stability in mouse microsome assessed as intrinsic clearance incubated for 45 mins in presence of NADPH regenerating system by LC-MS/MS analysis; assay type: ADME; details: microsomes, read-out: CLH
[14] = Oral bioavailability in Beagle dog measured at 0.083 to 24 hrs by LC-MS/MS analysis; assay type: ADME, organism-based, Canis lupus familiaris; details: in vivo, time 0.083-24 hrs
[15] = Volume of distribution at steady state in Sprague-Dawley rat measured at 0.083 to 24 hrs by LC-MS/MS analysis; assay type: ADME; details: in vivo, time 0.083-24 hrs, read-out: Vdss
[16] = Clearance in iv dosed Sprague-Dawley rat measured at 0.083 to 24 hrs by LC-MS/MS analysis; assay type: ADME, organism-based; details: in vivo, time 0.083-24 hrs
[17] = Volume of distribution at steady state in CD-1 mouse measured at 0.083 to 24 hrs by LC-MS/MS analysis; assay type: ADME; details: in vivo, time 0.083-24 hrs, read-out: Vdss
[18] = Half life in iv dosed CD-1 mouse measured at 0.083 to 24 hrs by LC-MS/MS analysis; assay type: ADME, organism-based; details: in vivo, time 0.083-24 hrs
[19] = Clearance in iv dosed Beagle dog measured at 0.083 to 24 hrs by LC-MS/MS analysis; assay type: ADME, organism-based, Canis lupus familiaris; details: in vivo, time 0.083-24 hrs
[20] = Metabolic stability in Beagle dog microsome assessed as intrinsic clearance incubated for 45 mins in presence of NADPH regenerating system by LC-MS/MS analysis; assay type: ADME, Canis lupus familiaris; details: microsomes, read-out: CLH
[21] = Half life in iv dosed Sprague-Dawley rat measured at 0.083 to 24 hrs by LC-MS/MS analysis; assay type: ADME, organism-based; details: in vivo, time 0.083-24 hrs
[22] = Clearance in iv dosed Cynomolgus monkey measured at 0.083 to 24 hrs by LC-MS/MS analysis; assay type: ADME, organism-based, Macaca fascicularis; details: in vivo, time 0.083-24 hrs
[23] = Oral bioavailability in […] Sprague-Dawley rat measured at 0.083 to 24 hrs by LC-MS/MS analysis; assay type: ADME, organism-based; details: in vivo, time 0.083-24 hrs
[24] = Clearance in iv dosed CD-1 mouse measured at 0.083 to 24 hrs by LC-MS/MS analysis; assay type: ADME, organism-based; details: in vivo, time 0.083-24 hrs
[25] = Oral bioavailability in Cynomolgus monkey measured at 0.083 to 24 hrs by LC-MS/MS analysis; assay type: ADME, organism-based, Macaca fascicularis; details: in vivo, time 0.083-24 hrs
[26] = Half life in iv dosed Beagle dog measured at 0.083 to 24 hrs by LC-MS/MS analysis; assay type: ADME, organism-based, Canis lupus familiaris; details: in vivo, time 0.083-24 hrs
[27] = Permeability of compound across apical to basolateral side in dog MDCK-MDR1 cells; assay type: ADME, cell-based, Canis lupus familiaris
[28] = Oral bioavailability in CD-1 mouse measured at 0.083 to 24 hrs by LC-MS/MS analysis; assay type: ADME, organism-based; details: in vivo, time 0.083-24 hrs
[29] = Metabolic stability in monkey microsome assessed as intrinsic clearance incubated for 45 mins in presence of NADPH regenerating system by LC-MS/MS analysis; assay type: ADME, Macaca mulatta; details: rhesus monkey, microsomes, read-out: CLH
[30] = Half life in iv dosed Cynomolgus monkey measured at 0.083 to 24 hrs by LC-MS/MS analysis; assay type: ADME, organism-based, Macaca fascicularis; details: in vivo, time 0.083-24 hrs
[31] = Permeability of compound across basolateral to apical side in dog MDCK-MDR1 cells; assay type: ADME, cell-based, Canis lupus familiaris
[32] = Volume of distribution at steady state in Beagle dog measured at 0.083 to 24 hrs by LC-MS/MS analysis; assay type: ADME, Canis lupus familiaris; details: in vivo, time 0.083-24 hrs, read-out: Vdss
[33] = Half life in Sprague-Dawley rat 1 mg/kg, iv measured at 0.083 to 24 hrs by LC-MS/MS analysis; assay type: ADME, organism-based; details: in vivo, time 0.083-24 hrs
Homo sapiens [34] = species: Homo sapiens; assay: Binding affinity to human SHP2 E76K mutant assessed as change in entropy by isothermal titration calorimetry assay
[35] = AUC (0 to 24 hrs) in Sprague-Dawley rat 1 mg/kg, iv measured at 0.083 to 24 hrs by LC-MS/MS analysis; assay type: ADME, organism-based; design: dose 1 mg/kg, time 0.083-24 hrs, route iv; details: in vivo
[36] = Volume of distribution at steady state in Sprague-Dawley rat 3 mg/kg, po or 1 mg/kg, iv measured at 0.083 to 24 hrs by LC-MS/MS analysis; assay type: ADME, organism-based; details: in vivo, time 0.083-24 hrs
Homo sapiens [37] = species: Homo sapiens; assay: Binding affinity to human SHP2 E76K mutant assessed as change in enthalpy by isothermal titration calorimetry assay
[38] = Oral bioavailability in Sprague-Dawley rat 3 mg/kg, iv measured at 0.083 to 24 hrs by LC-MS/MS analysis; assay type: ADME, organism-based; details: in vivo, time 0.083-24 hrs
[39] = Clearance in Sprague-Dawley rat 1 mg/kg, iv measured at 0.083 to 24 hrs by LC-MS/MS analysis; assay type: ADME, organism-based; details: in vivo, time 0.083-24 hrs
[40] = Oral bioavailability in Sprague-Dawley rat 3 mg/kg measured at 0.083 to 24 hrs by LC-MS/MS analysis; assay type: ADME, organism-based; details: in vivo, time 0.083-24 hrs
[41] = AUC (0 to 24 hrs) in Sprague-Dawley rat 0.3 mg/kg, iv measured at 0.083 to 24 hrs by LC-MS/MS analysis; assay type: ADME, organism-based; design: time lower 0.083 hrs, dose 0.3 mg/kg, time upper 24 hrs, route iv; details: in vivo

Papp B→A [1]: 10 ×10⁻⁶ cm/s
Papp A→B [2]: 9 ×10⁻⁶ cm/s
Papp B→A [3]: 10.2 ×10⁻⁶ cm/s
Papp A→B [4]: 6.4 ×10⁻⁶ cm/s
SMILES: C[C@@H]1OCC2(CCN(c3cnc4c(-c5cccc(Cl)c5Cl)n[nH]c4n3)CC2)[C@@H]1N

Papp B→A [1]: 25 ×10⁻⁶ cm/s
pKa [5]: 9.3
Papp A→B [2]: 12.4 ×10⁻⁶ cm/s
Papp B→A [3]: 40.7 ×10⁻⁶ cm/s
Papp A→B [4]: 8.6 ×10⁻⁶ cm/s
SMILES: CCNc1nccc(-c2n[nH]c3nc(N4CCC5(CC4)CO[C@@H](C)[C@H]5N)cnc23)c1Cl

CLint scaled ([6]; read-out: CL): 2 mL/min/kg
Papp B→A [1]: 3.64 ×10⁻⁶ cm/s
clearance [7]: 12 mL/min/kg
Vdss [8]: 2.2 L/kg
bioavailability [9]: 3%
CLint scaled [10]: 26 mL/min/kg
Papp A→B [2]: 0.27 ×10⁻⁶ cm/s
Papp B→A [3]: 9.5 ×10⁻⁶ cm/s
Papp A→B [4]: 0.3 ×10⁻⁶ cm/s
half-life [11]: 2.7 h
SMILES: N[C@@H]1CCCC12CCN(c1nc3[nH]nc(-c4cccc(Cl)c4Cl)c3c(=O)[nH]1)CC2

CLint scaled ([6]; read-out: CLH): 10 mL/min/kg
Vd [12]: 4.5 L/kg
CLint scaled [13]: 37 mL/min/kg
bioavailability [14]: 88%
Vd [15]: 3.7 L/kg
clearance [16]: 41.3 mL/min/kg
Vd [17]: 4.6 L/kg
half-life [18]: 6 h
clearance [19]: 9.2 mL/min/kg
CLint scaled [20]: 529 mL/min/kg
half-life [21]: 1.8 h
clearance [22]: 8.3 mL/min/kg
bioavailability [23]: 38%
CLint scaled [10]: 72 mL/min/kg
clearance [24]: 11.6 mL/min/kg
bioavailability [25]: 53%
half-life [26]: 5.5 h
Papp A→B [27]: 18 ×10⁻⁶ cm/s
bioavailability [28]: 119%
CLint scaled [29]: 74 mL/min/kg
half-life [30]: 7.3 h
Papp B→A [31]: 19 ×10⁻⁶ cm/s
Vd [32]: 3.5 L/kg
SMILES: Cc1nc(N2CCC3(CC2)CO[C@@H](C)[C@H]3N)c(Cl)c(=O)n1-c1cccc(Cl)c1Cl

half-life [33]: 13 h
-TdeltaS (Homo sapiens [34]): -5.44 kcal/mol
Papp B→A [1]: 6.8 ×10⁻⁶ cm/s
AUC(0-t) [35]: 2 µM·h
Vdss [36]: 21 L/kg
pKa [5]: 10.4
deltaH (Homo sapiens [37]): -3.67 kcal/mol
bioavailability [38]: 70%
Papp A→B [2]: 6 ×10⁻⁶ cm/s
CL [39]: 70%
Papp B→A [3]: 8.5 ×10⁻⁶ cm/s
Papp A→B [4]: 6 ×10⁻⁶ cm/s
SMILES: CC1(N)CCN(c2cnc3c(-c4cccc(Cl)c4Cl)n[nH]c3n2)CC1

bioavailability [40]: 38%
Papp B→A [1]: 8 ×10⁻⁶ cm/s
clearance [7]: 37 mL/min/kg
pKa [5]: 10.4
Vdss [8]: 12.9 L/kg
Papp A→B [2]: 4.2 ×10⁻⁶ cm/s
AUC(0-t) [41]: 0.314 µM·h
Papp B→A [3]: 28 ×10⁻⁶ cm/s
Papp A→B [4]: 2.1 ×10⁻⁶ cm/s
half-life [11]: 4.8 h
SMILES: CNc1nccc(-c2n[nH]c3nc(N4CCC(C)(N)CC4)cnc23)c1Cl

CLint scaled ([6]; read-out: CL): 0.7 mL/min/kg
Vd [12]: 3.4 L/kg
CLint scaled [13]: 28 mL/min/kg
bioavailability [14]: 106%
Vd [15]: 2.5 L/kg
clearance [16]: 5.8 mL/min/kg
Vd [17]: 2.6 L/kg
half-life [18]: 3.5 h
clearance [19]: 4.2 mL/min/kg
CLint scaled [20]: 17 mL/min/kg
half-life [21]: 5.9 h
clearance [22]: 4.2 mL/min/kg
bioavailability [23]: 80%
CLint scaled [10]: 0.8 mL/min/kg
clearance [24]: 9.2 mL/min/kg
bioavailability [25]: 89%
half-life [26]: 8.6 h
Papp A→B [27]: 12 ×10⁻⁶ cm/s
bioavailability [28]: 99%
CLint scaled [29]: 21 mL/min/kg
half-life [30]: 9.4 h
Papp B→A [31]: 32 ×10⁻⁶ cm/s
Vd [32]: 2.9 L/kg
SMILES: Cc1nc(N2CCC3(CC2)CO[C@@H](C)[C@H]3N)cc(=O)n1-c1cccc(Cl)c1Cl (stereo in doubt)

Reference: ChEMBL document CHEMBL5096203, “Discovery of 6-[(3S,4S)-4-Amino-3-methyl-2-oxa-8-azaspiro[4.5]decan-8-yl]-3-(2,3-dichlorophenyl)-2-methyl-3,4-dihydropyrimidin-4-one (IACS-15414), a Potent and Orally Bioavailable SHP2 Inhibitor” (J Med Chem, 2021)
